From patent US20140227408A1, “MEAT TREATMENT AND PRESERVATION METHOD” (RED MEAT AS, priority 2011, published 2014)
Marks after values point to notes of the source that are not given here.

What was measured:
Set-up in all cases: species or system cattle
[1] = Colour L*, a*, b* of treated ground beef, low oxygen packaging (Example 5); conditions: for L* / a* / b*: citrate High level (0.025 mol/kg), low oxygen, adjusted mean ± standard error
From the text: (§1) Beef M. semimembranosus (M.S.) and beef fat tissue were collected four days post mortem (Fatland A/S, Oslo, Norway). The packaging day is defined as day zero, however, the tissues were 4 days post mortem on packing day. A piece of meat from proximal end was cut from each muscle in order to measure oxygen consumption, pH and surface colour. Fat tissue from pigs fed rapeseed and vitamin E to enhance the content of polyunsaturated fatty acids were from HKScan (Ruokatalo, Finland). The fat tissue was transported vacuum-packaged and frozen. Samples of minced fat tissue were removed for fatty acid analysis.
(§2) The beef muscles were cut into pieces of approximately 10×5 cm and mixed to 14% w/w fat by using the fat tissues. Beef fat and pork fat tissues were ground twice with either raw beef from four young (16-19 months) or four old (46-81 months) cattle. […] The ground meat was blended manually with solutions (all at pH 5.8) with various TCA and glycolytic ingredients (see below).
(§3) To maintain pH at 5.8 the solutions were prepared by mixing the acid form and the corresponding sodium salt of these chemicals.
[…] The solution was quickly and properly stirred into the minced meat and the blended system was subsequently packaged. […] Two reference samples with 40 ml of distilled water added to 360 gram of ground beef were also prepared each of the four production day, i.e. altogether 8 references were prepared. The samples were packaged in either low or high oxygen atmosphere.
(§4) The ground beef was packaged in black amorphous polyethylene terephthalate (APET) trays that were sealed with ethylene vinyl alcohol (EVOH) top films. The trays and films (Wipak Multipet and Wipak Biaxer, both Wipak, Nastola, Finland) had oxygen transmission rates of 7 and 5 cm^3/m^2/24 h at 23° C. at 50% relative humidity. Packaging was carried out within 1 hour after grinding. The samples were stored in darkness at 4° C. for 8 days in a high-oxygen atmosphere (75% oxygen and 25% CO2) and for 13 days in a low-oxygen atmosphere (60% CO2 and 40% N2). These food grade gas mixtures were supplied by AGA (Oslo, Norway).
(§5) The colour of the ground meat samples was measured with a Konica Minolta Chroma Meter CR 410 (Konica Minolta Sensing Inc., Osaka, Japan) using the glass light projection tube CR A 33e with wide illumination area (61 mm) and illuminant D65. The instrument was calibrated each day by measuring a white ceramic plate (L*=97.9; a*=0.05; b*=2). All colour measurements were made with 3 replicates (CIE, 1976, “Recommendations on uniform colour spaces-colour difference equations” (Vol. Supplement No. 2 to CIE). Paris, France: Commission Internationale de l'Eclairage).
(§6) The colour of the samples packaged in high O2 was measured after 0, 1, 3, 6 and 8, days of storage from packaging day, while low O2 samples were measured at 0 to 13 days of storage using Minolta and reflectance measurements.
The experimental design is visualized in FIG. 5. A 2^2 design (animal age and type of fat tissue) was split over 4 experimental days (FIG. 5, and Tables 10 and 11). To each corner of this 2^2 design was added a 3 component (succinate, pyruvate and glutamate-malate additions; 0, 50 and 100%) simplex lattice mixture design with 2 additional centre experiments as shown in FIG. 5.

myoglobin in ground beef [2] = experiment: Myoglobin states (DMb, OMb, MMb) by reflectance spectra of treated ground beef, low oxygen packaging (Example 5); conditions: for DMb / MMb / OMb: citrate High level (0.025 mol/kg), low oxygen, adjusted mean ± standard error
From the text: as §1, §2, §3
(§7) 40 g of 0.1 M or 0.05 M solutions were added to ground beef-fat mixture (360 g) to a total weight of 400 g. The solution was quickly and properly stirred into the minced meat and the blended system was subsequently packaged. […] Two reference samples with 40 ml of distilled water added to 360 gram of ground beef were also prepared each of the four production day, i.e. altogether 8 references were prepared. The samples were packaged in either low or high oxygen atmosphere.
as §4
(§8) Samples were scanned, […], with a Foss NIRSystems OptiProbe™ 6500 Analyzer (Foss NIRSystems Inc., Maryland, USA) without opening of the package. The package was turned upside-down before measurements so that the meat would fall on the packaging film. The samples were scanned with three random placements of the probe on the package surface in order to increase the scanning area and reduce the measurement errors. Thirty-two scans for both reference and samples were acquired and averaged on each measured area. All measurements were performed at room temperature (approx. 20° C.) according to Khatri, et al. (Meat Sci. (2012) 91(3): 223-231). These spectra were used to predict OMb, MMb and DMb levels. Calibration was performed using comminuted meat with 10% w/w added water.
as §6
(§9) The statistical analysis was performed according to the approach described by Langsrud et al. (J. Appl. Statist. (2007) 34:1275-1296) and implemented in the 50-50 MANOVA software (http://www.langsrud.com/stat/program.htm). This program handles mixture designs as generalized categorical variables (generalized ANOVA). When using this method one can always formulate equivalent models that use the individual mixture variables as ordinary (one degree of freedom) regression variables. Then one arbitrary mixture variable has to be omitted (slack variable).

[3] = Colour L*, a*, b* of treated ground beef, high oxygen packaging (Example 5); conditions: citrate High level
From the text: as §1, §2, §3, §7, §4, §5, §6
The experimental design is visualized in FIG. 5. A 2^2 design (animal age and type of fat tissue) was split over 4 experimental days (FIG. 5, and Tables 10 and 11). […] 5.

myoglobin in ground beef [4] = experiment: Myoglobin states (DMb, OMb, MMb) by reflectance spectra of treated ground beef, high oxygen packaging (Example 5); conditions: for DMb / MMb / OMb: citrate High level, high oxygen, adjusted mean ± standard error
From the text: as §1
The beef muscles were cut into pieces of approximately 10×5 cm and mixed to 14% w/w fat by using the fat tissues. Beef fat and pork fat tissues were ground twice with either raw beef from four young (16-19 months) or four old (46-81 months) cattle. The meat had pH of 5.65 and was ground with a Seydelmann ME-130 (Seydelmann, Stuttgart, Germany) grinder through a plate with 3 mm openings. The ground meat was blended manually with solutions (all at pH 5.8) with various TCA and glycolytic ingredients (see below).
as §3, §7, §4, §8, §6
as §9, with “variable). […]” for “variable).”

[5] = Day 1, adjusted mean ± standard error
[6] = Day 3, adjusted mean ± standard error
[7] = Day 6, adjusted mean ± standard error
[8] = Day 8, adjusted mean ± standard error

With `O=C(O)CC(O)C(=O)O` (racemic) [malate] the “effect on yellowness (b*), in words” value ([1]; low oxygen packaging) was “nominally higher b* values”.
For `O=C(O)CC(O)(CC(=O)O)C(=O)O` [Citrate], the DMb (myoglobin in ground beef [2]; Day 1) was 42.1 ± 3.3 %, the MMb (myoglobin in ground beef [2]; Day 1) was 50.2 ± 3.0 % and the OMb (myoglobin in ground beef [2]; Day 1) was 7.8 ± 0.4 %. The DMb (myoglobin in ground beef [2]; Day 3) was 55.5 ± 3.3 %, the MMb (myoglobin in ground beef [2]; Day 3) was 39.1 ± 3.1 % and the OMb (myoglobin in ground beef [2]; Day 3) was 5.5 ± 0.4%. It also gave a DMb (myoglobin in ground beef [2]; Day 6) of 64.9 ± 3.1%, an OMb (myoglobin in ground beef [2]; Day 6) of 3.7 ± 0.4% and a DMb (myoglobin in ground beef [2]; Day 8) of 66.6 ± 3.1%. The OMb (myoglobin in ground beef [2]; Day 8) was 4.1 ± 0.4%, the DMb (myoglobin in ground beef [2]; Day 10) was 69.9 ± 3.0% and the MMb (myoglobin in ground beef [2]; Day 10) was 26.3 ± 2.9 %. It also gave an OMb (myoglobin in ground beef [2]; Day 10) of 3.8 ± 0.3%, a DMb (myoglobin in ground beef [2]; Day 13) of 72.3 ± 4.1 % and an MMb (myoglobin in ground beef [2]; Day 13) of 23.9 ± 3.8 %. The OMb (myoglobin in ground beef [2]; Day 13) was 3.8 ± 0.5 %, the “effect on myoglobin states (DMb, OMb, MMb), in words” value (myoglobin in ground beef [2]; low oxygen packaging) was “increased OMb and MMb while the DMb was reduced” and the “L*” value [3, 5] was 34.2 ± 0.3. The “a*” value [3, 5] was 13.0 ± 0.2*, the “b*” value [3, 5] was 4.5 ± 0.1* and the “L*” value [3, 6] was 33.6 ± 0.3*. For the same compound, the “a*” value [3, 6] was 12.3 ± 0.2*, the “b*” value [3, 6] was 4.4 ± 0.1* and the “L*” value [3, 7] was 33.8 ± 0.3. For the same compound, the “a*” value [3, 7] was 11.0 ± 0.3, the “b*” value [3, 7] was 4.1 ± 0.2* and the “L*” value [3, 8] was 33.9 ± 0.3. For the same compound, the “a*” value [3, 8] was 10.3 ± 0.2, the “b*” value [3, 8] was 4.0 ± 0.1* and the “L*” value ([1]; Day 1) was 33.5 ± 0.3. The “a*” value ([1]; Day 1) was 6.6 ± +.3*, the “b*” value ([1]; Day 1) was 2.3 ± 0.2 and the “L*” value ([1]; Day 3) was 33.0 ± 0.3. The “a*” value ([1]; Day 3) was 7.1 ± 0.2, the “b*” value ([1]; Day 3) was 2.3 ± 0.1* and the “L*” value ([1]; Day 6) was 33.3 ± 0.2*. The “a*” value ([1]; Day 6) was 7.5 ± 0.2, the “b*” value ([1]; Day 6) was 2.2 ± 0.1* and the “L*” value ([1]; Day 8) was 33.4 ± 0.2*. The “a*” value ([1]; Day 8) was 7.5 ± 0.2, the “b*” value ([1]; Day 8) was 2.1 ± 0.1* and the “L*” value ([1]; Day 10) was 33.4 ± 0.2*. For the same compound, the “a*” value ([1]; Day 10) was 7.6 ± 0.2, the “b*” value ([1]; Day 10) was 2.1 ± 0.1 and the “L*” value ([1]; Day 13) was 33.2 ± 0.3*. For the same compound, the “a*” value ([1]; Day 13) was 7.6 ± 0.4, the “b*” value ([1]; Day 13) was 2.1 ± 0.2* and the DMb (myoglobin in ground beef [4]; Day 1) was 0.0 ± 0.0 %. The MMb (myoglobin in ground beef [4]; Day 1) was 6.6 ± 0.3%, the OMb (myoglobin in ground beef [4]; Day 1) was 93.4 ± 0.6% and the DMb (myoglobin in ground beef [4]; Day 3) was 0.0 ± 0.0%. The MMb (myoglobin in ground beef [4]; Day 3) was 10.5 ± 0.6%, the OMb (myoglobin in ground beef [4]; Day 3) was 89.5 ± 0.6% and the DMb (myoglobin in ground beef [4]; Day 6) was 0.5 ± 0.3%. The MMb (myoglobin in ground beef [4]; Day 6) was 20.4 ± 0.6%, the OMb (myoglobin in ground beef [4]; Day 6) was 79.1 ± 0.7% and the DMb (myoglobin in ground beef [4]; Day 8) was 0.6 ± 0.2%. For the same compound, the MMb (myoglobin in ground beef [4]; Day 8) was 26.7 ± 0.7%, the OMb (myoglobin in ground beef [4]; Day 8) was 72.7 ± 0.8% and the “effect on myoglobin states (DMb, OMb, MMb), in words” value (myoglobin in ground beef [4]; high oxygen packaging) was “nominal higher values for OMb”.
